Measured values reported in patent US9789111B2, “Casein kinase 1δ (CK 1δ) inhibitors” (Electrophoretics Limited, priority 2010, dated 2017).

Legend:
Assay in all cases: kinase inhibition assay panel
Type in all cases: biochemical
ABL2/ARG = ABL2/ARG (Homo sapiens, UniProt P42684)
Description: (§1) Base Reaction buffer; 20 mM Hepes (pH 7.5), 10 mM MgCl2, 1 mM EGTA, 0.02% Brij35, 0.02 mg/ml BSA, 0.1 mM Na3VO4, 2 mM DTT, 1% DMSO
(§2) It should be noted that required cofactors are added individually to each kinase reaction.
(§3) • 1. Prepare indicated substrate in freshly prepared Base Reaction Buffer as described above • 2. Deliver any required cofactors to the substrate solution • 3. Deliver indicated kinase into the substrate solution and gently mix • 4. Deliver compounds in DMSO into the kinase reaction mixture • 5. Deliver ^33P-ATP (specific activity 0.01 μCi/μl final) into the reaction mixture to initiate the reaction • 6. Incubate kinase reaction for 120 min. at room temperature • 7. Reactions are spotted onto P81 ion exchange paper (Whatman #3698-915) • 8. Wash filters extensively in 0.75% Phosphoric acid Kinase Information: • CK1δ—Genbank Accession # NP_620693 • Recombinant human full-length construct. GST-tagged, expressed in insect cells. • Final concentration in assay=4 nM • Substrate: CK1tide • Substrate sequence: [KRRRAL[pS]VASLPGL] • Final substrate concentration in assay=20 μM • It should be noted that no additional cofactors are added to the reaction mixture.

CDK5/p25 = CDK5/p25 (Homo sapiens, UniProt Q00535)
Description: as §1, §2, §3

GSK3b = GSK3b (Homo sapiens, UniProt P49841)
Description: as §1, §2, §3

HGK/MAP4K4 = HGK/MAP4K4 (Homo sapiens, UniProt O95819)
Description: as §1, §2, §3

JNK2 = JNK2 (Homo sapiens, UniProt P45984)
Description: as §1, §2, §3

KDR/VEGFR2 = KDR/VEGFR2 (Homo sapiens, UniProt P35968)
Description: as §1, §2, §3

LCK = LCK (Homo sapiens, UniProt P06239)
Description: as §1, §2, §3

MSK1/RPS6KA5 = MSK1/RPS6KA5 (Homo sapiens, UniProt O75582)
Description: as §1, §2, §3

PDK1/PDPK1 = target: T1, PDK1/PDPK1 (Homo sapiens, UniProt O15530)
T1 sequence (O15530 1-556): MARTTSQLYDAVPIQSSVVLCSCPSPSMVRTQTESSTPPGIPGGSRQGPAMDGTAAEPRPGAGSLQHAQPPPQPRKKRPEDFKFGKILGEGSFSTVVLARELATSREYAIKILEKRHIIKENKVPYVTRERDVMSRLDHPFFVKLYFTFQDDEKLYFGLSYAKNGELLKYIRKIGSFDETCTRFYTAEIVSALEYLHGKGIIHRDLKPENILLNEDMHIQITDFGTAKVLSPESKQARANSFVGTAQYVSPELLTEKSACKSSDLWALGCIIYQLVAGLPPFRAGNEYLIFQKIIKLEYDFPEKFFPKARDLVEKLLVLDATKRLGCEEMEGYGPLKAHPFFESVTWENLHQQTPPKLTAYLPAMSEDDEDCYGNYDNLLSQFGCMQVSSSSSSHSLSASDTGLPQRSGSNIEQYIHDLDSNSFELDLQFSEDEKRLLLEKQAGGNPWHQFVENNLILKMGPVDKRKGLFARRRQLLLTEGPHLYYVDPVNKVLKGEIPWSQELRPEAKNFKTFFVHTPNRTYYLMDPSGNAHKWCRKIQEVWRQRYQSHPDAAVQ
Description: as §1, §2, §3

PIM3 = PIM3 (Homo sapiens, UniProt Q86V86)
Description: as §1, §2, §3

PKCa = PKCa (Homo sapiens, UniProt P17252)
Description: as §1, §2, §3

PKCb2 = PKCb2 (Homo sapiens, UniProt P05771)
Description: as §1, §2, §3

ROCK1 = ROCK1 (Homo sapiens, UniProt Q13464)
Description: as §1, §2, §3

TNIK = TNIK (Homo sapiens, UniProt Q9UKE5)
Description: as §1, §2, §3

c-SRC = c-SRC (Homo sapiens, UniProt P12931)
Description: as §1, §2, §3

FGFR1 = FGFR1 (Homo sapiens, UniProt P11362)
FGFR1, sequence (P11362 22-822, species assumed): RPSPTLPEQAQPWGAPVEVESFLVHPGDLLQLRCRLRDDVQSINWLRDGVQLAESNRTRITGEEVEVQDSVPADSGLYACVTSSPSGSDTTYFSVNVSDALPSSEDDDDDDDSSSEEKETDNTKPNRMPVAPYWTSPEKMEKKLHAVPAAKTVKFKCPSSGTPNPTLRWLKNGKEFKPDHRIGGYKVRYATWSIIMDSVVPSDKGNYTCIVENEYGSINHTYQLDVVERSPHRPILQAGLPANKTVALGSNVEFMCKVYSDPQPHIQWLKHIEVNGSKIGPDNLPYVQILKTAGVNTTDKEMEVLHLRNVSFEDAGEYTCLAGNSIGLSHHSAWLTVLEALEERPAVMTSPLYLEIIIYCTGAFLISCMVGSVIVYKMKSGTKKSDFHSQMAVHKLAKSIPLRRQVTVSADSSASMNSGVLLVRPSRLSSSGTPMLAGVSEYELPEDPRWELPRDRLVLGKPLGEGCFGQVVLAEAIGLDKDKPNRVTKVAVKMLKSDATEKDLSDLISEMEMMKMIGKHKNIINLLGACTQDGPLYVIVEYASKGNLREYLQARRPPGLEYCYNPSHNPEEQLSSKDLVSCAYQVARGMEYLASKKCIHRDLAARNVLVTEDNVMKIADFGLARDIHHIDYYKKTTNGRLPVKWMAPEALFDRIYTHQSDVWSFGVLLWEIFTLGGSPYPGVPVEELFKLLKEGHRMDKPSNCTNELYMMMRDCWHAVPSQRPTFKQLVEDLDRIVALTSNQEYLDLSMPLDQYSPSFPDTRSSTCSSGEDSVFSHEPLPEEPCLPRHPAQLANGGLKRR

TNIK, sequence (Q9UKE5 whole entry, species assumed): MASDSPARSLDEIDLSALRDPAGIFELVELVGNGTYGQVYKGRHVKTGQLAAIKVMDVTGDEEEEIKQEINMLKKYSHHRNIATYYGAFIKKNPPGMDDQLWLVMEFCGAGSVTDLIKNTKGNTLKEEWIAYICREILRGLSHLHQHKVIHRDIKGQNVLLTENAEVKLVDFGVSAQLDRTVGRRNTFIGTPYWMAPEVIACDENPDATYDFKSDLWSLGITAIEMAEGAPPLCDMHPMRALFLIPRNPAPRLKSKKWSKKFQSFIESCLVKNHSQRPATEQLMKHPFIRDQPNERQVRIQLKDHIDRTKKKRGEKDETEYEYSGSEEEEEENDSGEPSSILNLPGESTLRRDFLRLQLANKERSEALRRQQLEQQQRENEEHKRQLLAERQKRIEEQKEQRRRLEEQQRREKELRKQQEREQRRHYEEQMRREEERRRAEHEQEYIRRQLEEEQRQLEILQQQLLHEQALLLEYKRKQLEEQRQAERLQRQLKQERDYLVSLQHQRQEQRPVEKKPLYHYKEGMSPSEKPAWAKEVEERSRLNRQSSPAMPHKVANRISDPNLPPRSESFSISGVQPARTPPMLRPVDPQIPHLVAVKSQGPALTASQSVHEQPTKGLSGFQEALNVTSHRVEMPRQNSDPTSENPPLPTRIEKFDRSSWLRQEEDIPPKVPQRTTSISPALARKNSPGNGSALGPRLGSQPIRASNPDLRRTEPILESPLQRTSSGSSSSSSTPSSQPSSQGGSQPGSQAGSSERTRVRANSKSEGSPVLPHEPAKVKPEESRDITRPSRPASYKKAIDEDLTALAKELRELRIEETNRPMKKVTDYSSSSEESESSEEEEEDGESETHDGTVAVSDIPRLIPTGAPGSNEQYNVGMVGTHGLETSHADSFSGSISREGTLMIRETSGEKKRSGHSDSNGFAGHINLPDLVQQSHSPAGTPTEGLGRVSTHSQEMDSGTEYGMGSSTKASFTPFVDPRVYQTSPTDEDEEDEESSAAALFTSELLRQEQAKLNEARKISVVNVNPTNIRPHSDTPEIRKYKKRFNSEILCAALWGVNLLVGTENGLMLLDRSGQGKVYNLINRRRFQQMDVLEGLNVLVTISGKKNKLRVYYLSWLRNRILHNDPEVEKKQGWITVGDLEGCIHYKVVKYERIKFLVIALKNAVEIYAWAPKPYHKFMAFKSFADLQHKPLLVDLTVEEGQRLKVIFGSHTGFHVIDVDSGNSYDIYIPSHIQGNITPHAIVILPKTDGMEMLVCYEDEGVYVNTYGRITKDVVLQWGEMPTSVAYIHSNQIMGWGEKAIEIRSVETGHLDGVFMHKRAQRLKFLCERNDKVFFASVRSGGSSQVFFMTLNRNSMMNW
ABL2/ARG, sequence (P42684 whole entry): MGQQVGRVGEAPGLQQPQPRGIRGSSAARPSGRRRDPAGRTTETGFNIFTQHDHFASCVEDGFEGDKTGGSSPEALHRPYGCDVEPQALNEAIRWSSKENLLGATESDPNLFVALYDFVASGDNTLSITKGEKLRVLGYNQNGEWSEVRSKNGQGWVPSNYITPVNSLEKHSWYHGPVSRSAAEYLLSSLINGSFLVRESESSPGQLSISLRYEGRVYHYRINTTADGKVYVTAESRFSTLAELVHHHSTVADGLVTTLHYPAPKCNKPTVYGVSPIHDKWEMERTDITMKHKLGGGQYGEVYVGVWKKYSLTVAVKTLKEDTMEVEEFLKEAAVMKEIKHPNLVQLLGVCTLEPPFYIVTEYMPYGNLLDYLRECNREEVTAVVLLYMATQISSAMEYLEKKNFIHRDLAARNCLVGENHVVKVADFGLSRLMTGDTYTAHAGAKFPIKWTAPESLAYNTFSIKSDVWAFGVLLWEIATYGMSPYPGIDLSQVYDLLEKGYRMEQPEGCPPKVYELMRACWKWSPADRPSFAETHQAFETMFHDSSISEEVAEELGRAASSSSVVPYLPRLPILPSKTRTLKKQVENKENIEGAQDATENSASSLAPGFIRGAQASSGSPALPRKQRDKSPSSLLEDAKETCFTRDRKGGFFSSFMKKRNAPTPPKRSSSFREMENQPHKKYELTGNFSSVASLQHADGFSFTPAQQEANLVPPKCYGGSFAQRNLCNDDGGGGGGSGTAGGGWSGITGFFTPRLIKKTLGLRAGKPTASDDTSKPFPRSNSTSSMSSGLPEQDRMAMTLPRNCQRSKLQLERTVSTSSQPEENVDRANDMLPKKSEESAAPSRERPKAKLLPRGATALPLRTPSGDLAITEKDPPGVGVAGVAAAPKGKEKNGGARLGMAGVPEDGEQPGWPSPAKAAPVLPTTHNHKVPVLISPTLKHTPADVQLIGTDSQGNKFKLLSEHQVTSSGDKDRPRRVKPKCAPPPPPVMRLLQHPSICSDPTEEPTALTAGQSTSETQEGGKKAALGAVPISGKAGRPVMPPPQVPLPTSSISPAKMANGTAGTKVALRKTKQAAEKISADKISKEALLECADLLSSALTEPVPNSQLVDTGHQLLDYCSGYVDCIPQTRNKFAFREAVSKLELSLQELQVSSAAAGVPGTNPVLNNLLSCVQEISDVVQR
JNK2, sequence (P45984 whole entry, species assumed): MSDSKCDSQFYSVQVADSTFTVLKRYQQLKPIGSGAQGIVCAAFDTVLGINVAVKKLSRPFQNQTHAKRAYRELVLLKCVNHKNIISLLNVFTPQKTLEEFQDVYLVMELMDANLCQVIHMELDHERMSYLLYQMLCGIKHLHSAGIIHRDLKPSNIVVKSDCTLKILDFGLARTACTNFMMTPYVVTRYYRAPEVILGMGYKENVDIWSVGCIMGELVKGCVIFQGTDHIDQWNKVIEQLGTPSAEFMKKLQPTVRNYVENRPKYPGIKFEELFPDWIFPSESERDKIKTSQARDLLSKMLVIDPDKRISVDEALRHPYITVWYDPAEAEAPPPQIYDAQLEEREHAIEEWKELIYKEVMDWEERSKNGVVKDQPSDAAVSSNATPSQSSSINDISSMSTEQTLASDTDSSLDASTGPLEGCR
c-SRC, sequence (P12931 whole entry, species assumed): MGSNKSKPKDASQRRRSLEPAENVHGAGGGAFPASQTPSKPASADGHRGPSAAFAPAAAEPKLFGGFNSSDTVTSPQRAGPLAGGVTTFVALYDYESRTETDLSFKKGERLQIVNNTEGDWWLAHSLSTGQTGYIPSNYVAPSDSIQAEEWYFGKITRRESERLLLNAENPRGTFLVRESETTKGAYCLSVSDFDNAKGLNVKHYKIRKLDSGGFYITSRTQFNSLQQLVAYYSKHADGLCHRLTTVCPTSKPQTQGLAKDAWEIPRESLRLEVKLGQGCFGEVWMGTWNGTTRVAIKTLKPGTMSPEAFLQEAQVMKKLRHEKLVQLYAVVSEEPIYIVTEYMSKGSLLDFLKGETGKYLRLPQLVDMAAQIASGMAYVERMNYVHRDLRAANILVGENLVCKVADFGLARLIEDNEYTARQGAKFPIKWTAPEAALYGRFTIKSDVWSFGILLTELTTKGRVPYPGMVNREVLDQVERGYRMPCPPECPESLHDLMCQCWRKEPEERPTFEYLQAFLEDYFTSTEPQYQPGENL

inhibition of ABL2/ARG (ABL2/ARG)	inhibition of CDK5/p25 (CDK5/p25)	inhibition of GSK3b (GSK3b)	inhibition of HGK/MAP4K4 (HGK/MAP4K4)	inhibition of JNK2 (JNK2)	inhibition of KDR/VEGFR2 (KDR/VEGFR2)	inhibition of LCK (LCK)	inhibition of MSK1/RPS6KA5 (MSK1/RPS6KA5)	inhibition of PDK1/PDPK1 (PDK1/PDPK1)	inhibition of PIM3 (PIM3)	inhibition of PKCa (PKCa)	inhibition of PKCb2 (PKCb2)	inhibition of ROCK1 (ROCK1)	inhibition of TNIK (TNIK)	inhibition of c-SRC (c-SRC)	inhibition of FGFR1 (FGFR1)	SMILES
lower than 40%	lower than 40%	lower than 40%	lower than 40%	lower than 40%	lower than 40%	lower than 40%	lower than 40%	lower than 40%	lower than 40%	lower than 40%	lower than 40%	lower than 40%	lower than 40%	lower than 40%	lower than 40%	Nc1ncc(-c2nc3ccccc3o2)c(-c2ccncc2)n1 [Compound 324, 5-(1,3-benzoxazol-2-yl)-4-(pyridin-4-yl)pyrimidin-2-amine]
lower than 40%	lower than 40%	lower than 40%	lower than 40%	lower than 40%	lower than 40%	lower than 40%	lower than 40%	lower than 40%	lower than 40%	lower than 40%	lower than 40%	lower than 40%	lower than 40%	lower than 40%	lower than 40%	NC(=O)c1c(N)c(C(=O)c2ccc(F)cc2)n2ccccc12 [Compound 987, 2-amino-3-[(4-fluorophenyl)carbonyl]indolizine-1-carboxamide]
